The values that follow come from US10273240B2, “Cortistatin analogues, syntheses, and uses thereof” (President and Fellows of Harvard College, priority 2015, dated 2019).

Where two headings read alike, the source gives them in different places.

Experiment [1] concerns SKNO-1. Briefly: Cell growth assay, SKNO-1. The following applies: Homo sapiens, SKNO-1, 240 h. Format: cell-based. The protocol:
(§1) All media was supplemented with 100 U/mL penicillin and 100 μg/mL streptomycin. Human cancer cell lines were grown in the following media: MV4; 11, K562, MOLM-14 in RPMI-1640, 10% FBS; SKNO-1 in RPMI-1640, 10% FBS, and 10 ng/mL GM-CSF; MV4;11 and K562 were from ATCC. SKNO-1 was from DSMZ.
(§2) Cell Culture. All media was supplemented with 100 U/mL penicillin and 100 μg/mL streptomycin. Human cancer cell lines were grown in the following media: MV4; 11, RS4; 11, K562, HEL, MOLM-14, MEG-01 in RPMI-1640, 10% FBS; SET-2 in RPMI-1640, 20% FBS; UKE-1 in RPMI-1640, 10% FBS, 10% horse serum and 1 μM hydrocortisone; SKNO-1 and TF-1 in RPMI-1640, 10% FBS, and 10 or 2 ng/mL GM-CSF, respectively; HaCaT in DMEM, 10% FBS; and HCT116 in McCoy's 5 A, 10% FBS (proliferation assay) or DMEM, 10% FBS (gene expression study). HepG2, MV4;11, RS4;11, MEG-01, TF-1, HCT116 and K562 were from ATCC. SKNO-1 was from DSMZ. HEL, UKE-1, and SET-2 were provided by Ross L. Levine and HaCaT, MV4;11-mCLP, and MOLM-14 by Van Wilson, Andrew L. Kung, and Scott A. Armstrong, respectively. MOLM-14 cells were authenticated by STR profiling and flow cytometry and all cell lines were routinely tested and found to be negative for mycoplasma.

Experiment [2] relates to MOLM-14. Briefly: Cell growth assay, MOLM-14. Format: cell-based. The note with it: Homo sapiens. The protocol:
as §1, §2

Experiment [3] has as its target T1, CDK13 in MOLM-14 cell lysate (Homo sapiens, UniProt Q14004).
T1 construct: endogenous in cells; host or cells: MOLM-14 cell lysate
Briefly: Native kinase capture immunoblot, CDK13. It is filed as binding. The protocol:
(§3) Native Kinase Capture Immunoblot and Native Kinome-Wide Profiling. […] Experiment was performed twice with one immunoblot shown.

Experiment [4] deals with T2, GSG2 in MOLM-14 cell lysate (Homo sapiens, UniProt Q8TF76).
T2 construct: endogenous in cells; host or cells: MOLM-14 cell lysate
T2 sequence (Q8TF76 whole entry): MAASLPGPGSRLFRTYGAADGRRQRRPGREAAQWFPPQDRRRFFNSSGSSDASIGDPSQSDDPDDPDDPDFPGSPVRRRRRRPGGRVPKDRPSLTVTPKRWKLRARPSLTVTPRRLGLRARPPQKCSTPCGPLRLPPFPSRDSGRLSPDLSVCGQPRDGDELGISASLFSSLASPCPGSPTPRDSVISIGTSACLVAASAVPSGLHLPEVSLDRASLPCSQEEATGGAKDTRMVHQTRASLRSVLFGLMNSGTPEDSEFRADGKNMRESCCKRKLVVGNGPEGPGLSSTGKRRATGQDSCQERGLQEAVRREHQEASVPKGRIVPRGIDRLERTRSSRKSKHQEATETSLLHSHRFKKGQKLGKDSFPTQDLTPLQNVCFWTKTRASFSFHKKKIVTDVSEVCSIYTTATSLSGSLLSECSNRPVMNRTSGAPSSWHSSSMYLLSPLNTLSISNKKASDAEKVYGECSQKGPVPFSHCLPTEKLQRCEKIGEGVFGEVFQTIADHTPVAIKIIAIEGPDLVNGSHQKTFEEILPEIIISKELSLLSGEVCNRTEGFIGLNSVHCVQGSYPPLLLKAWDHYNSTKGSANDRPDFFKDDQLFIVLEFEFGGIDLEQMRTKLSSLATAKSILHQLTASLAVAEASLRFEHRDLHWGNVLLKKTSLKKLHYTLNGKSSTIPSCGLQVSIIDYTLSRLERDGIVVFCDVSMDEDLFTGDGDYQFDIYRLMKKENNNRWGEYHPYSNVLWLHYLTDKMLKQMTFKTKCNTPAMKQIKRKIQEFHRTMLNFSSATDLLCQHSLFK
Kind of experiment: Native kinase capture immunoblot, GSG2. It is filed as binding. The protocol: as §3

Experiment [5] deals with T3, CDK9 (P-TEFb) (Homo sapiens, UniProt P50750).
T3 construct: made in house
T3 sequence (P50750 1-345 limits assumed): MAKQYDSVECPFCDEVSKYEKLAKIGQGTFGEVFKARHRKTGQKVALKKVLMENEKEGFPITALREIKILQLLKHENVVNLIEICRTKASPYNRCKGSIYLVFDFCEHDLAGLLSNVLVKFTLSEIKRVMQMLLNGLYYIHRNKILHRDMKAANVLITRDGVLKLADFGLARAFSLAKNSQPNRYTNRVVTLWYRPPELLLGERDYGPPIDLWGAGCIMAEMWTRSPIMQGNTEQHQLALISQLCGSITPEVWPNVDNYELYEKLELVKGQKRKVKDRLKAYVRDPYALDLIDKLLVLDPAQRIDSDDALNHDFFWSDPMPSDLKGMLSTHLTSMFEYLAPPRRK
T3 sequence (O60563 1-266 partner limits assumed): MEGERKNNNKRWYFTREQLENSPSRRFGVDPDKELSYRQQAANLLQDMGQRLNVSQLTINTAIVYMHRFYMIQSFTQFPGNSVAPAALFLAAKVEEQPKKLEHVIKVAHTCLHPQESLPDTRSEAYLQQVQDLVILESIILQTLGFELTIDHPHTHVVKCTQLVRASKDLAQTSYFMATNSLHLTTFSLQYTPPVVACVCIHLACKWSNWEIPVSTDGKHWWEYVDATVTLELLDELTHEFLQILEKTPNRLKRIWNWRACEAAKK
Briefly: In vitro kinase assay, CDK9 (P-TEFb). Format: biochemical. The protocol: (§4) Kinase Assays. Data was quantified with ImageJ and plotted and fitted with GraphPad Prism 6.0. For STAT1 transactivation domain (TAD), 750 ng of GST-STAT1 TAD (residues 639-750) was incubated with ˜50 ng recombinant CDK8 module at 30° C. for 8 min in kinase buffer (25 mM Tris pH 8, 2 mM DTT, 100 μM cold ATP, 100 mM KCl, 10 mM MgCl2 and 2.5 μCi [γ-^32P] ATP (Perkin Elmer) per reaction). […] 12% SDS-PAGE gels were subsequently silver stained, exposed for 18 h on a Phosphor Screen and imaged (Typhoon 9400, GE Life Sciences). For pol II CTD, 400 ng of GST-CTD (murine sequence) was incubated with ˜40 ng recombinant CDK8 module, 25 ng TFIIH, or 40 ng P-TEFb at 30° C. for 60 min in kinase buffer. Kinase amounts were chosen to give similar total pol II CTD signal. 9% SDS-PAGE gels were silver stained and exposed as above. In vitro FLAG-CDK8 kinase assays used ˜40 ng kinase and 500 ng GST-CTD. For STAT1 or Smad2/3, cells were treated with compound for 1 h followed by IFN-γ or TGF-β1 for 1 h, then washed twice with cold PBS, and lysed (RIPA buffer with inhibitors R0278, P8340, P0044, P5762 Sigma-Aldrich). Standard immunoblotting was then performed with one immunoblot shown. All experiments were performed twice.
Protein Purification. Buffers for purification and elution of recombinant proteins included 0.25 mM PMSF, 1 mM DTT, 1 mM benzamidine, and 1 mM sodium metabisulfite. […]

Experiment [6] relates to STAT1 S727 phosphorylation. Briefly: IFN-γ-stimulated STAT1 S727 phosphorylation immunoblot. It is filed as cell-based, human. The following applies: MOLM-14 cells. The protocol:
as §4

T1 sequence (Q14004 whole entry): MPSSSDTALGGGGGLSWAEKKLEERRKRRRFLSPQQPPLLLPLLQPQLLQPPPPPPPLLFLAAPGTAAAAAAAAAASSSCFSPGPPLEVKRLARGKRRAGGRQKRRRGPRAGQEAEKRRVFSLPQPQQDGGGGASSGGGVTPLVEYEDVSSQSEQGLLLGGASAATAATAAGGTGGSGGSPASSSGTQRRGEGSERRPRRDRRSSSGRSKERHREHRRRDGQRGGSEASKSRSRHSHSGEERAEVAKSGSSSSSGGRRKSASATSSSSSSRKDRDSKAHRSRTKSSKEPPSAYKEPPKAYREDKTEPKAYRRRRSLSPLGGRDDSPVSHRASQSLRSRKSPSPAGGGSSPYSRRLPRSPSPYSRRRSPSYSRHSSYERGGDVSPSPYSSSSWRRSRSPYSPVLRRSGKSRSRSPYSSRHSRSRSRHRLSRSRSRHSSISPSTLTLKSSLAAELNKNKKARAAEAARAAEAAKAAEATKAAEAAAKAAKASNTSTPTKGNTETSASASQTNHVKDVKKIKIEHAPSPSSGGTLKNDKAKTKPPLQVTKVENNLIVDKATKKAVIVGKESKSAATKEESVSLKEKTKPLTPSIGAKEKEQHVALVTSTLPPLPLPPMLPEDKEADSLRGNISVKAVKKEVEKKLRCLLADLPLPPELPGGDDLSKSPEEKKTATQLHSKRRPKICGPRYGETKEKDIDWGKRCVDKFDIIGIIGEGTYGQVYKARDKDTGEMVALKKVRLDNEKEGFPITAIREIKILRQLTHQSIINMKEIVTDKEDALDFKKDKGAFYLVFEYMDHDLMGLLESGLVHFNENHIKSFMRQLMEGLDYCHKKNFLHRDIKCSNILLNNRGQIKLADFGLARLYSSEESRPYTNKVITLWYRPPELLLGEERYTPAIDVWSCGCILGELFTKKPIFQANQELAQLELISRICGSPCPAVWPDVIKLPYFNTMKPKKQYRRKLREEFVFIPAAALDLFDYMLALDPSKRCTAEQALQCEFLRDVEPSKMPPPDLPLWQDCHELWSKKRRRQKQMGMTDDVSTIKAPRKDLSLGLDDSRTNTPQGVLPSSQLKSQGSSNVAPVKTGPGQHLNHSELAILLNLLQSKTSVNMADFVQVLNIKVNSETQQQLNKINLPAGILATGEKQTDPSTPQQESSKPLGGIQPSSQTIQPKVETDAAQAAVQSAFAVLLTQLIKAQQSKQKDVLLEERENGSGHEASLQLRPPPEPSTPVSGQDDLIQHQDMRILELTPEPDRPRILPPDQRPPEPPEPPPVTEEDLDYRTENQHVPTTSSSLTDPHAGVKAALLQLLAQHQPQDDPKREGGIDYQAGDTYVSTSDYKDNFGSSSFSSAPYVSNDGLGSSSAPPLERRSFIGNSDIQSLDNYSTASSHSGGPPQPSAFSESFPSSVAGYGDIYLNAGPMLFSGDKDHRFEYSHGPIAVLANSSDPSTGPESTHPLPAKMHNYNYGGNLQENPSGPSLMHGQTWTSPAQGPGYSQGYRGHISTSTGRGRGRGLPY
T1 sequence (O75909 whole entry partner): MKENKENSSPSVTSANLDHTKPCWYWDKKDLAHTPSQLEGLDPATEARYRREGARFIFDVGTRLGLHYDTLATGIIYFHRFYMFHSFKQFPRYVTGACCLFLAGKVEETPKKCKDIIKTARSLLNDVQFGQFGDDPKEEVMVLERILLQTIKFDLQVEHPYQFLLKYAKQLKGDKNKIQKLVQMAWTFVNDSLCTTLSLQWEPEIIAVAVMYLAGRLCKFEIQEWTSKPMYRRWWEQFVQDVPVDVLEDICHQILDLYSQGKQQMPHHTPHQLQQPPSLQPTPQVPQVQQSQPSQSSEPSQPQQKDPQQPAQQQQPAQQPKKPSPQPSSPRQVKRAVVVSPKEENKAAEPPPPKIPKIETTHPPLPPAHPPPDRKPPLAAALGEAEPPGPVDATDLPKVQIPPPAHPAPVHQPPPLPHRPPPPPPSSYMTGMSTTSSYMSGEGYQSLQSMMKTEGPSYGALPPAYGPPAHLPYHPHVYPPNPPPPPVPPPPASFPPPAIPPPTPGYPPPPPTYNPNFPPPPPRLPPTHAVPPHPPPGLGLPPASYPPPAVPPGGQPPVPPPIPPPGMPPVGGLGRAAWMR

With `CN(C)[C@H]1C[C@@]23CC[C@@]4(O2)C(=CC[C@@]2(C)[C@@H](c5ccc6ccncc6c5)CC[C@H]24)C=C3[C@@H](O)[C@@H]1O` [CA, cortistatin A], the GI50 in experiment [1] (CA, after 10 days, read-out: Mean GI50 (nM), SKNO-1) was 1 nM; in experiment [1] (read-out: SKNO-1 GI50 day 10) it was less than 0.4 nM; in experiment [2] (MOLM-14, 240 h, CA, after 10 days, read-out: Mean GI50 (nM), MOLM-14), 5 nM; in experiment [2] (MOLM-14, 240 h, read-out: MOLM14 GI50 day 10), 5 nM; in experiment [2] (MOLM-14, Table 5, read-out: GI50 (nM), MOLM-14), 5 nM. Moreover, the “binding of CDK13 (no binding at up to)” value in experiment [3] is greater than 2500 nM. Moreover, in experiment [4], the “binding of GSG2 (no binding at up to)” value was greater than 2500 nM. The “inhibition of CDK9 (P-TEFb)” value in experiment [5] is “did not inhibit”. Besides, the “inhibition of STAT1 S727 phosphorylation” value in experiment [6] is on record as “dose-dependently inhibited”.
